# Results published in patent US8658637B2, “Glucocorticoid mimetics, methods of making them, pharmaceutical compositions and uses thereof” (Boehringer Ingelheim International GmbH, priority 2006, dated 2014).
# Columns and labels:
# [1] = system: IL-6 production in human foreskin fibroblast cells; assay: Inhibition of IL-6 Production in Fibroblasts (Cell Assay for Transrepression); format: cell-based; settings: IL-1 stimulated human foreskin fibroblasts; for EC50: read-out: agonistic activity (EC50) by inhibiting IL-6 production in Fibroblasts; for Emax: read-out: efficacy by inhibiting IL-6 production in Fibroblasts
# Procedure: 2. Inhibition of IL-6 Production in Fibroblasts (Cell Assay for Transrepression)
# Human foreskin fibroblast cells produce IL-6 in response to stimulation by proinflammatory cytokine IL-1.
# Human foreskin fibroblast cells (ATCC Cat. No. CRL-2429) are plated on 96 well plates at 5,000 cells per well the day before use, in Iscove's Modified Dulbecco's Media (GibcoBRL Life Technologies Cat. No. 12440-053) supplemented with 10% charcoal filtered FBS (Clonetech Cat. No. SH30068) and Gentamycin (GibcoBRL Life Technologies Cat. No. 15710-064). On the next day, media in the wells is replaced with fresh media. Cells are treated with IL-1 (rhIL-1α, R&D Systems Cat. No. 200-LA) to a final concentration of 1 ng/mL, and with test compounds to final concentrations of 10^−5 M to 10^−8 M, in a total volume of 200 μL per well. Samples are done in duplicates. […] Positive control wells receive IL-1 only and represent maximum (or 100%) amount of IL-6 production. Plates are incubated at 37° C. overnight (15 to 18 hours), and supernatants are harvested at the end of incubation. IL-6 levels in the supernatants are determined by the ELISA kits for IL-6 (MedSystems Diagnostics GmbH, Vienna, Austria, Cat. No. BMS213TEN) according to manufacture's instructions. The extent of inhibition of IL-6 by test compounds is expressed in percentage relative to positive controls. IC50 values of test compounds are derived by non-linear curve fitting.
melting point,Compound,EC50 [1],Emax [1]
137 to 141 °C,OC(c1cnc2c(cnn2-c2ccccc2)c1)(c1c[nH]c2ncccc12)C(F)(F)F (stereo not drawn),–,–
–,"OCC(O)Cn1cc(C(O)(c2ccn3c(-c4ccc(F)cc4)ncc3c2)C(F)(F)F)c2ccccc21 (stereo not drawn) [3-(3-{2,2,2-Trifluoro-1-[3-(4-fluorophenyl)imidazo[1,5-a]pyridin-7-yl]-1-hydroxyethyl}indol-1-yl)propane-1,2-diol]",≤ 1000 nM,> 50%
–,"OCC(O)Cn1cc(C(O)(c2ccc3c(cnn3-c3ccc(F)cc3)c2)C(F)(F)F)c2ccc(Br)cc21 (stereo not drawn) [3-(6-Bromo-3-{2,2,2-trifluoro-1-[1-(4-fluorophenyl)-1H-indazol-5-yl]-1-hydroxyethyl}indol-1-yl)propane-1,2-diol]",≤ 1000 nM,> 50%
–,"COc1nccc2c(C(O)(c3ccc4c(cnn4-c4ccc(F)cc4)c3)C(F)(F)F)cn(CC(O)CO)c12 (stereo not drawn) [3-(7-Methoxy-3-{2,2,2-trifluoro-1-[1-(4-fluorophenyl)-1H-indazol-5-yl]-1-hydroxyethyl}pyrrolo[2,3-c]pyridin-1-yl)propane-1,2-diol]",≤ 1000 nM,> 50%
–,"Cc1cc(C(O)(c2ccc3c(cnn3-c3ccc(F)cc3)c2)C(F)(F)F)c[nH]c1=O (stereo not drawn) [3-Methyl-5-{2,2,2-trifluoro-1-[1-(4-fluorophenyl)-1H-indazol-5-yl]-1-hydroxyethyl}-1H-pyridin-2-one]",≤ 1000 nM,> 50%
–,"OCC(O)CCn1cc(C(O)(c2ccc3c(cnn3-c3ccc(F)cc3)c2)C(F)(F)F)c2ccccc21 (stereo not drawn) [4-(3-{2,2,2-Trifluoro-1-[1-(4-fluorophenyl)-1H-indazol-5-yl]-1-hydroxyethyl}indol-1-yl)-butane-1,2-diol]",≤ 1000 nM,> 50%
–,"C=CCn1cc(C(O)(c2ccc3c(cnn3-c3ccc(F)cc3)c2)C(F)(F)F)c2ncn(C)c(=O)c21 (stereo not drawn) [5-Allyl-3-methyl-7-{2,2,2-trifluoro-1-[1-(4-fluorophenyl)-1H-indazol-5-yl]-1-hydroxyethyl}-3,5-dihydropyrrolo[3,2-d]pyrimidin-4-one]",≤ 1000 nM,> 50%
–,"CC(C)NC(=O)n1ncc2cc(C(O)(c3cn(C)c4ccccc34)C(F)(F)F)ccc21 (stereo not drawn) [5-[2,2,2-Trifluoro-1-hydroxy-1-(1-methyl-1H-indol-3-yl)ethyl]indazole-1-carboxylic acid isopropylamide]",≤ 1000 nM,> 50%
–,"Cc1cc(C(O)(c2ccc3c(cnn3-c3ccc(F)cc3)c2)C(F)(F)F)cn(CC(N)=O)c1=O (stereo not drawn) [(3-Methyl-2-oxo-5-{2,2,2-trifluoro-1-[1-(4-fluorophenyl)-1H-indazol-5-yl]-1-hydroxyethyl}-2H-pyridin-1-yl)acetamide]",≤ 1000 nM,> 50%
–,"CCOC(=O)Cn1cc(C(O)(c2ccc3c(cnn3-c3ccc(F)cc3)c2)C(F)(F)F)c2ccccc21 (stereo not drawn) [(3-{2,2,2-Trifluoro-1-[1-(4-fluorophenyl)-1H-indazol-5-yl]-1-hydroxyethyl}indol-1-yl)acetic acid ethyl ester]",≤ 1000 nM,> 50%
–,"O=C(O)Cn1cc(C(O)(c2ccc3c(cnn3-c3ccc(F)cc3)c2)C(F)(F)F)c2ccccc21 (stereo not drawn) [(3-{2,2,2-Trifluoro-1-[1-(4-fluorophenyl)-1H-indazol-5-yl]-1-hydroxyethyl}indol-1-yl)acetic acid]",≤ 1000 nM,> 50%
–,"N#CCn1cc(C(O)(c2ccc3c(cnn3-c3ccc(F)cc3)c2)C(F)(F)F)c2cccnc21 (stereo not drawn) [(3-{2,2,2-Trifluoro-1-[1-(4-fluorophenyl)-1H-indazol-5-yl]-1-hydroxyethyl}pyrrolo[2,3-b]pyridin-1-yl)acetonitrile]",≤ 1000 nM,> 50%
–,"C[C@@H](O)Cn1cc(C(O)(c2ccc3c(cnn3-c3ccc(F)cc3)c2)C(F)(F)F)c2ccccc21 (stereo partly drawn) [(R)-1-(3-{2,2,2-Trifluoro-1-[1-(4-fluorophenyl)-1H-indazol-5-yl]-1-hydroxyethyl}indol-1-yl)propan-2-ol]",≤ 1000 nM,> 50%
–,"C[C@H](O)Cn1cc(C(O)(c2ccc3c(cnn3-c3ccc(F)cc3)c2)C(F)(F)F)c2ccccc21 (stereo partly drawn) [(S)-1-(3-{2,2,2-Trifluoro-1-[1-(4-fluorophenyl)-1H-indazol-5-yl]-1-hydroxyethyl}indol-1-yl)propan-2-ol]",≤ 1000 nM,> 50%
91 to 93 °C,"C=CCn1cc(C(O)(c2ccc3c(cnn3-c3ccc(F)cc3)c2)C(F)(F)F)c2ccn(C)c(=O)c21 (stereo not drawn) [Example 75, 1-Allyl-6-methyl-3-{2,2,2-trifluoro-1-[1-(4-fluorophenyl)-1H-indazol-5-yl]-1-hydroxyethyl}-1,6-dihydropyrrolo[2,3-c]pyridin-7-one]",–,–
–,"CNC(=O)CCn1cc(C(O)(c2ccc3c(cnn3-c3ccc(F)cc3)c2)C(F)(F)F)c2ccccc21 (stereo not drawn) [N-Methyl-3-(3-{2,2,2-trifluoro-1-[1-(4-fluorophenyl)-1H-indazol-5-yl]-1-hydroxyethyl}indol-1-yl)propionamide]",≤ 1000 nM,> 50%
